In PMC4640888, “Discovery and Characterization of a Potent Interleukin-6 Binding Peptide with Neutralizing Activity In Vivo” (PLoS ONE, 2015):
Blank lines part the entries; values can stand above or below the molecule they belong to. Positions of bridges follow the written chain, without caps; N, C: chain ends. Non-standard residues stand in square brackets, D forms with d. Residues, ends and D or L forms follow the SMILES beside them. Phe(4-F) = N[C@@H](Cc1ccc(F)cc1)C(=O)O; Gla = N[C@@H](CC(C(=O)O)C(=O)O)C(=O)O; Cha = N[C@@H](CC1CCCCC1)C(=O)O

Key:
[1] = Comparative PK of PEGylated peptides in rats; type: in vivo; settings: rat; male rats, single SC dose 0.23 μmol/kg, plasma, LC-MS/MS, non-compartmental; read-out: PK half-life (t1/2) (converted)
Procedure: Male rats for pharmacokinetic studies were obtained from Harlan Laboratories (South Easton, MA. […] For all time points, blood samples were collected via retro-orbital eye bleed or exsanguination via abdominal aorta into tubes containing K2EDTA and were processed into plasma, which was placed in Eppendorf Protein LoBind tubes and stored frozen at approximately -70°C until quantitative bioanalysis.
The dosing solutions were formulated just prior to administration, in sterile 1X PBS with 0.1% BSA. Plasma sample extraction was performed by aliquoting 100 μL of each rat plasma sample into a standard 96-well plate. To each well, 400 μL of 5% formic acid in acetonitrile (containing 200 ng/mL of internal standard) was added. The plate was vortexed at high speed for approximately 10 min and then centrifuged for 15 min, 4700 x g at 4°C. Supernatant (425 μL) was transferred into a clean 96-well plate and evaporated to dryness under nitrogen at approximately 50°C. The extracts were then reconstituted in 50 μL of 1% formic acid in 60% acetonitrile.
Reconstituted extracts (5 μL) were analyzed by liquid chromatography-tandem mass spectrometry (LC-MS/MS) with positive electrospray ionization (QTrap 5500, AB SCIEX, Framingham, MA). […]

IL-6 = settings: cited from earlier work
Procedure: The inhibitory potency of PN-2921 was assessed in human whole blood ...

[2] = target: IL-6-induced pSTAT3 in U937 cells (Homo sapiens, UniProt P05231); experiment: pSTAT3 HTRF assay in U937 cells; type: cell-based
Procedure: Peptides were serially diluted in medium containing 10% fetal bovine serum (FBS)/4% DMSO, then added to recombinant IL-6 (Xtal Biostructures, Inc., Natick, MA) at 28.2 ng/mL and the resulting plate was incubated at room temperature with shaking for 2.5 h at 37°C. […] After incubation for 12 min at 37°C the cells were centrifuged at 4°C (1400 rpm for 5 min) and the media was removed from the plates. Cells were placed on ice and 50 μL lysis buffer (Cisbio Assays, Bedford MA) was added. Phosphorylation of STAT3 was detected as described by the provider (Cisbio Assays). Briefly, cells were lysed for 30 min at room temperature and then 16 μL of lysates was added to a 384-well Proxiplate (Perkin Elmer, Waltham, MA). Anti-STAT3-d2+anti pSTAT-3-K detection cocktail (4μL; Cisbio Assays) was then added to the wells and the plate covered with a plate sealer and returned to 4°C overnight. Plates were then read with an Envision plate reader at ex 340, em 615 and 665 nm. […] These mixtures were then added to U937 cells for 15 min at 37°C and pSTAT3 was detected as described above.

IL-6/IL-6R = target: T1, IL-6/IL-6R (Homo sapiens, UniProt P05231); experiment: IL-6 – IL-6R competition ELISA; type: binding; settings: compared to PN-1454
T1 construct: purchased PeproTech
T1 sequence (P05231 30-212): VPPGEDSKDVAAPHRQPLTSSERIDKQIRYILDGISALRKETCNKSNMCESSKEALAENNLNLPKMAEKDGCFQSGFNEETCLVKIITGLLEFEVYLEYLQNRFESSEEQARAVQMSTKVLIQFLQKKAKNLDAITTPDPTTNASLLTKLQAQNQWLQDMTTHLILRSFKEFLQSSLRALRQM
Procedure: Peptides were initially evaluated using a competitive enzyme-linked immunosorbent assay (ELISA). High binding 96-well microtiter plates (half-area, Corning Life Sciences, Corning, NY)) were coated with 0.1 μg per well of IL-6R (PeproTech, Rocky Hill, NJ) overnight at 4°C. The wells were then blocked for 2 h with a 1% BSA (Sigma, St. Louis, MO) solution containing 0.1% Tween-20 (Amresco, Solon, OH) and subsequently washed with wash buffer (PBS containing 0.1% Tween-20). Peptides were serially diluted in assay buffer (0.1% BSA, 0.05% Tween-20 in PBS) and incubated with a 50 pM biotinylated IL-6 (PeproTech) for 30 min at room temperature. This mixture was then transferred to an assay plate, and the plate incubated for 1 h. The plate was washed with wash buffer, and presence of bound IL-6 detected through addition of streptavidin poly-horseradish peroxidase conjugate (Pierce, Rockford IL). Plates were developed using a TMB substrate kit (Pierce) and stopped with 2N H2SO4. Inhibition of complex formation was measured as a reduction in absorbance at 450 nm.

Chain of IL-6-induced pSTAT3 in U937 cells (P05231 30-212): as above

half-life [1]: 3.4 h
Molecule: CC[C@H](C)[C@@H]1NC(=O)[C@@H](NC(=O)[C@H](CC(=O)O)NC(=O)[C@H](CC2CCCCC2)NC(=O)[C@H](CC(=O)O)NC(=O)[C@H](CO)NC(=O)[C@H](CCC(N)=O)NC(C)=O)CSSC[C@@H](C(=O)N[C@@H](CCC(=O)O)C(=O)O)NC(=O)[C@H](CCC(=O)O)NC(=O)[C@H](CC(=O)O)NC(=O)[C@H](CC(N)=O)NC(=O)[C@H]([C@@H](C)CC)NC(=O)[C@H](CCCCN)NC(=O)[C@H](CC(C(=O)O)C(=O)O)NC(=O)[C@H]([C@@H](C)CC)NC(=O)[C@H](CCCCN)NC(=O)[C@H](CCC(=O)O)NC(=O)[C@H](Cc2c[nH]c3ccccc23)NC(=O)[C@H](CCCNC(=N)N)NC(=O)[C@H](CCC(N)=O)NC(=O)[C@H](CCC(=O)O)NC(=O)[C@H](CCC(=O)O)NC(=O)[C@H]([C@@H](C)O)NC(=O)[C@H](CC(C)C)NC(=O)[C@H](CC(N)=O)NC(=O)[C@@H]2CCCN2C(=O)[C@H](CC(=O)O)NC(=O)[C@H](CC(C)C)NC(=O)[C@H](Cc2ccc(F)cc2)NC(=O)[C@H](C)NC(=O)[C@H](CCC(=O)O)NC(=O)[C@H](CC(C)C)NC(=O)[C@H](CC(C)C)NC(=O)[C@H](CCCNC(=N)N)NC(=O)[C@H](Cc2c[nH]cn2)NC1=O [PN-2365] (Ac-QSD[Cha]DCIHRLLEA[Phe(4-F)]LDPNLTEEQRWEKI[Gla]KINDECE-OH; disulfide 6-35)

Molecule: siltuximab: monoclonal antibody specific for IL-6
potency (IL-6): pM range

Molecule: CC[C@H](C)[C@@H]1NC(=O)[C@@H](NC(=O)[C@H](CC(=O)O)NC(=O)[C@H](CC2CCCCC2)NC(=O)[C@H](CC(=O)O)NC(=O)[C@H](CO)NC(=O)[C@H](CCC(N)=O)NC(C)=O)CSSC[C@@H](C(=O)N[C@@H](CCC(=O)O)C(=O)O)NC(=O)[C@H](CCC(=O)O)NC(=O)[C@H](CC(=O)O)NC(=O)[C@H](CC(N)=O)NC(=O)[C@H]([C@@H](C)CC)NC(=O)[C@H](CCCCN)NC(=O)[C@H](CC(C(=O)O)C(=O)O)NC(=O)[C@H]([C@@H](C)CC)NC(=O)[C@H](CCCNC(=N)N)NC(=O)[C@H](CCC(=O)O)NC(=O)[C@H](Cc2c[nH]c3ccccc23)NC(=O)[C@H](CCCNC(=N)N)NC(=O)[C@H](CCC(N)=O)NC(=O)[C@H](CCC(=O)O)NC(=O)[C@H](CCC(=O)O)NC(=O)[C@H]([C@@H](C)O)NC(=O)[C@H](CC(C)C)NC(=O)[C@H](CC(N)=O)NC(=O)[C@@H]2CCCN2C(=O)[C@H](CC(=O)O)NC(=O)[C@H](CC(C)C)NC(=O)[C@H](Cc2ccc(F)cc2)NC(=O)[C@H](C)NC(=O)[C@H](CCC(=O)O)NC(=O)[C@H](CC(C)C)NC(=O)[C@H](CC(C)C)NC(=O)[C@H](CCCNC(=N)N)NC(=O)[C@H](Cc2c[nH]cn2)NC1=O [PN-2519] (Ac-QSD[Cha]DCIHRLLEA[Phe(4-F)]LDPNLTEEQRWERI[Gla]KINDECE-OH; disulfide 6-35)
fold improvement in cell-based activity ([2]; compared to PN-1974, U937 pSTAT3): ~ 1000 fold
antagonist activity in the IL-6 pSTAT3 assay in U937 cells (Fig 2C) ([2]; effect of PEG molecular weight, PEGylation at position 29): comparable

fold improvement in IC50 in the competitive ELISA (IL-6/IL-6R): ~ 20 fold
Molecule: CC[C@H](C)[C@@H]1NC(=O)[C@H](CCCCN)NC(=O)CNC(=O)[C@H](Cc2c[nH]c3ccccc23)NC(=O)[C@H](CCCNC(=N)N)NC(=O)[C@H](CCC(N)=O)NC(=O)[C@H](CCC(=O)O)NC(=O)[C@H](CO)NC(=O)[C@H](CC(N)=O)NC(=O)[C@H](CC(C)C)NC(=O)[C@H](CC(N)=O)NC(=O)[C@@H]2CCCN2C(=O)[C@H](CC(=O)O)NC(=O)[C@H](CC(C)C)NC(=O)[C@H](Cc2ccccc2)NC(=O)[C@H](C)NC(=O)[C@H](CCC(=O)O)NC(=O)[C@H](CC(C)C)NC(=O)[C@H](CC(C)C)NC(=O)[C@H](CCCNC(=N)N)NC(=O)[C@H](CCCNC(=N)N)NC(=O)[C@H]([C@@H](C)CC)NC(=O)[C@@H](NC(=O)[C@H](CCC(N)=O)NC(=O)[C@H](CC(C)C)NC(=O)[C@H](CC(N)=O)NC(=O)[C@H](Cc2ccccc2)NC(C)=O)CSSC[C@@H](C(N)=O)NC(=O)[C@H](CC(=O)O)NC(=O)[C@H](CC(=O)O)NC(=O)[C@H](CC(N)=O)NC(=O)[C@H]([C@@H](C)CC)NC(=O)[C@H](CO)NC(=O)[C@H](CC(=O)O)NC1=O [PN-1484] (Ac-FNLQCIRRLLEAFLDPNLNSEQRWGKIDSINDDC-NH2; disulfide 5-34 (inferred))
